# Measured values as given in US20210094922A1, “Dyes for Analysis of Soluble Protein Aggregates or Misfolded Protein Oligomers” (The Penn State Research Foundation, priority 2018, published 2021).
# Entries after “also recorded” stand apart in the source; their conditions may differ.
# What was measured:
# [1] = molecular target: bovine serum albumin and sodium dodecyl sulfate (Bos taurus, UniProt P02769); experiment: Fluorescence background response to BSA and SDS; conditions: incubated with BSA or SDS
# Description: 20 µM of fluorophores were incubated in H2O, glycerol, dioxane, BSA (2 mg/mL), or SDS (0.2%). Intensities were normalized against the value in either 100% glycerol as 1 for CCVJ and 4, or dioxane as 1 for SBD. Parameters for fluorescence measurement: SBD (Ex=450 nm/Em=545 nm), CCVJ (Ex=450 nm/Em=500 nm), 4 (Ex=530 nm/Em=630 nm). Error bars: standard error (n=3).
# [2] = molecular target: SOD1(V31A)-Halo (UniProt P00441+P0A3G2, A155T/A167V/A172T/A224E/C128F/C176G/D78G/E160K/E257K/H272N/K175M/K195N/L47V/L88M/N227D/S58T/T264A/V32A/Y273L/Y87F); experiment: AggTag imaging of NaAsO2-induced SOD1(V31A)-Halo aggregation in HEK293T cells; format: cell-based, human; design: expressed in transfected cells; host or cells: HEK293T; conditions: NaAsO2
# Description: (§1) During protein expression, medium is supplemented with 1 μM of coumarin ligand and 1 μM of 4 to enable a simultaneous dual-probe labeling to Halo-Tag. Note: Halo-Tag locates in both cytoplasm and nucleus. Blue: fluorescence from the Halo-Tag⋅coumarin conjugate. Red: fluorescence from the Halo-Tag-4 conjugate. Scale bar: 10 μm.
# (§2) Confocal microscope imaging. The HEK293T cells were seeded at 25% confluency 24 h prior to transfection in poly-D-lysine coated 35 mm glass bottom dishes (MatTek Corporation). Cells were grown in DMEM media supplemented with 10% FBS and Penicillin-Streptomycin antibiotics until they reached 50-60% confluency. Transfection was carried out using X-tremeGene™ 9 DNA transfection reagent (Roche) according to the manufacturer's instructions. Proteins were expressed for 24 h prior to analyses. To label proteins with Halo-Tag fusion, protein expression was carried out in the presence of 1 μM 4 or 1 μM TMR Halo-Tag ligand to form covalent conjugate with the Halo-Tag domain. For a dual-probe labeling scheme, 1 μM 4 and 1 μM coumarin Halo-Tag ligand to simultaneously form covalent conjugate with the Halo-Tag domain.
# (§3) HEK293T cultures were seeded at 25% confluency 24 h prior to transfection in 12-well plate for time dependent fluorescence plate reader analysis or 35 mm glass bottom culture dishes (Poly-d-lysine coated, MatTek Corporation). Cells were grown in DMEM medium supplemented with 10% FBS and penicillin-streptomycin antibiotics until they reached 50-60% confluency. Transfection was performed using X-tremeGene™ 9 DNA transfection reagent (Roche). After 24 h of protein expression and co-translational labeling, medium was replaced with fresh DMEM to diffuse out unbound ligands. After 30 min, media was replaced by fresh DMEM medium containing DMSO vehicle or NaAsO2 (50 μM). […] At indicated time points, fluorescence reading was obtained using a Tecan M1000Pro fluorescence plate reader. Fluorescence intensity was recorded at Ex=530 nm/Em=600 nm for 3 and Ex=450 nm/Em=480 nm for ThT. […] Fluorescence of 3 was measured at Ex=530 nm/Em=600 nm.
# [3] = molecular target: SOD1(V31A)-Halo (Rhodococcus rhodochrous, UniProt P0A3G2, A155T/A167V/A172T/A224E/C128F/C176G/D78G/E160K/E257K/H272N/K175M/K195N/L47V/L88M/N227D/P291S/S58T/T264A/Y273L/Y87F); experiment: as above; format: cell-based, human; design: expressed in transfected cells; host or cells: HEK293T
# Description: as §1, §2, §3
# SOD1(V31A)-Halo (Rhodococcus rhodochrous, UniProt P0A3G2, A155T/A167V/A172T/A224E/C128F/C176G/D78G/E160K/E257K/H272N/K175M/K195N/L47V/L88M/N227D/P291S/S58T/T264A/Y273L/Y87F), sequence (P0A3G2 other isoform, or with tags, fused parts or gaps with the stated changes): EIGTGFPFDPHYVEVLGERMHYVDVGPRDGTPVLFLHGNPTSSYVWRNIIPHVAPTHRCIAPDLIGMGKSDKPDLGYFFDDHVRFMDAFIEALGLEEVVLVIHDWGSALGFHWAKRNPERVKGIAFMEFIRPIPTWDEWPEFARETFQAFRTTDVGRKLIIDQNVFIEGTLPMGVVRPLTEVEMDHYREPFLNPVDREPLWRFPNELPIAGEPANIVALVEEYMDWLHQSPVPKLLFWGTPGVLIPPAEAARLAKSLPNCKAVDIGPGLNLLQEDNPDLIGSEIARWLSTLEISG
# bovine serum albumin and sodium dodecyl sulfate, sequence (P02769 25-607): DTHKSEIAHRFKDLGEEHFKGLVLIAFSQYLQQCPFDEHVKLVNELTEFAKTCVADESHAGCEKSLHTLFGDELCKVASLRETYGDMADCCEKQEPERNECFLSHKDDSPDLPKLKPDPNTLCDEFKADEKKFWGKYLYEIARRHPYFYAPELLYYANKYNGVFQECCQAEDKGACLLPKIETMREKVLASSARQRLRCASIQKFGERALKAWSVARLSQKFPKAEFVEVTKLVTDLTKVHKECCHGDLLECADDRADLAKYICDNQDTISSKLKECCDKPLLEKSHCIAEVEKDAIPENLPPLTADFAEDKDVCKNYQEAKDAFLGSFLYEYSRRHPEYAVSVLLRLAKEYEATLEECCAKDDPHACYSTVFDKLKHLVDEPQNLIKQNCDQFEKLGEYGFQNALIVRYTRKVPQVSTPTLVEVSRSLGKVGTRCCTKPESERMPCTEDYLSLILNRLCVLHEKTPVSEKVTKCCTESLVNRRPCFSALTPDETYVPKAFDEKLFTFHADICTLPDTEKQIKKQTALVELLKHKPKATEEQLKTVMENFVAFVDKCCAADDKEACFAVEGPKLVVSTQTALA
# SOD1(V31A)-Halo (UniProt P00441+P0A3G2, A155T/A167V/A172T/A224E/C128F/C176G/D78G/E160K/E257K/H272N/K175M/K195N/L47V/L88M/N227D/S58T/T264A/V32A/Y273L/Y87F), sequence (P00441+P0A3G2 fused with the stated changes): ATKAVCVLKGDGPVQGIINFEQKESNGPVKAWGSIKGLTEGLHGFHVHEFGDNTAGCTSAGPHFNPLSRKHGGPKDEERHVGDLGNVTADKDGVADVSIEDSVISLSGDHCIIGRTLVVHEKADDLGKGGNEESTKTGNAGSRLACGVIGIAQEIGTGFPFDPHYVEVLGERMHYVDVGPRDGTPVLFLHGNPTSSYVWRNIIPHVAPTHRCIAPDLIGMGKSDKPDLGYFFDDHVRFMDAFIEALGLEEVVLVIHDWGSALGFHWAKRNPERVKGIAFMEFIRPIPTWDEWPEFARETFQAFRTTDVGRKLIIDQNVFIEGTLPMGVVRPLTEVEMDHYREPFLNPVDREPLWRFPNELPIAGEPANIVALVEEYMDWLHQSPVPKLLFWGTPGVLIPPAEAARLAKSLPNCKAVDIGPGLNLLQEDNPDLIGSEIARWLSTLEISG
smiles,measurement,setting,value
"CN(C)c1ccc(/C=C2N=C(/C=C/c3ccc(N(CCO)CCO)cc3)N(CC(=O)N[C@H]3CC[C@H](C(=O)NCCOCCOCCCCCCCl)CC3)C\2=O)cc1 [Compound 4, (1r,4r)-4-(2-((Z)-2-((E)-4-(bis(2-hydroxyethyl)amino)styryl)-4-(4-(dimethylamino)benzylidene)-5-oxo-4,5-dihydro-1H-imidazol-1-yl)acetamido)-N-(2-(2-((6-chlorohexyl)oxy)ethoxy)ethyl)cyclohexanecarboxamide]",fluorescent background signal versus SBD and CCVJ,[1],substantially lower fluorescent background signal
same,fluorescence of SOD1(V31A)-Halo labeled cells before and after stress,[2],dark before stress but exhibited both diffuse and punctate fluorescent structures in stressed cells
same,fluorescence in cells co-expressing Halo-Tag and SOD1-V31A-GFP,"[3]; NaAsO2 stressor 50 μM, 18 h, 37° C.",turn-on fluorescence was not observed
same,fluorescence in cells expressing Halo-Tag alone under stress,"[3]; NaAsO2 stressor, Halo-4 conjugate",remained dark in stressed cells; also recorded: fluorescence was not observed
